Assay results: patent US11667663B2, “Cyclic dinucleotides as anticancer agents” (BRISTOL-MYERS SQUIBB COMPANY, priority 2017, dated 2023)
Like-named read-outs stand apart in the source and are kept apart here.

Columns and labels:
[1] = molecular target: T1, STING WT: His-TVMV-S-hSTING(155-341)-H232R (Homo sapiens, UniProt Q86WV6, H232R); assay: STING HTRF competition binding assay, STING WT; details: 20 nM His-tagged STING cytoplasmic domain WT, 200 nM fluorescein-labeled cGAMP analog probe, one hour; read-out: HTRF Binding Assays IC50 WT
T1 construct: STING WT: His-TVMV-S-hSTING(155-341)-H232R
T1 sequence (Q86WV6 with tags, fused parts or gaps H232R): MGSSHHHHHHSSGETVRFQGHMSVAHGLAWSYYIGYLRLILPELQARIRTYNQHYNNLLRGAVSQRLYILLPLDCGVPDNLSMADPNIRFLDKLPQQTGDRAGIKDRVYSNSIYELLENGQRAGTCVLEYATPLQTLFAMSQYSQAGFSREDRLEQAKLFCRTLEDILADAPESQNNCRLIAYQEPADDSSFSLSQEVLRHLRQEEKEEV
Procedure: (§1) Sting HTRF Binding Assays
(§2) A time resolved FRET-based competition binding assay was used to assess test article binding to STING WT and STING AQ. His-tagged STING cytoplasmic domain (WT or AQ) at a concentration of 20 nM was incubated with 2.5 nM Tb-labeled anti-His antibody, test compound, and fluorescein-labeled cGAMP analog probe (BioLog cat. no. C195) at a concentration of 200 nM (STING WT) or 40 nM (STING AQ) in PBS containing 0.005% Tween-20 and 0.1% BSA for one hour. Fluorescence at 495 nm and 520 nm was measured using an EnVision microplate reader to quantify FRET between Tb-labeled anti-His antibody and fluorescein-labeled probe. Background was defined as the signal obtained in the absence of STING protein, and background subtracted FRET ratios were normalized to the maximum signal obtained in the absence of test compound. These values were converted to a percent inhibition. Percent inhibition was determined for test compounds at 11 concentrations. The IC50, defined as the concentration of competing test compound needed to reduce specific binding of the probe by 50%, was calculated using the 4 parameter logistic equation to fit the data

[2] = molecular target: T2, STING AQ: His-TVMV-S-hSTING(155-341)-G230A-R293Q (Homo sapiens, UniProt Q86WV6, G230A/H232R/R293Q); assay: STING HTRF competition binding assay, STING AQ; details: 20 nM His-tagged STING cytoplasmic domain AQ, 40 nM fluorescein-labeled cGAMP analog probe, one hour; read-out: HTRF Binding Assays IC50 AQ
T2 construct: STING AQ: His-TVMV-S-hSTING(155-341)-G230A-R293Q
T2 sequence (Q86WV6 with tags, fused parts or gaps G230A/H232R/R293Q): as the sequence (Q86WV6 with tags, fused parts or gaps H232R) above, with G99A, R162Q counted along it
Procedure: as §1, §2

IRF pathway = assay: STING THP1 reporter assay, IRF pathway (Lucia luciferase); type: cell-based; details: THP1-Dual cells, 10% human plasma, luciferase readout, 100% = 100 μM cGAMP, read-out: THP1 Reporter Assays EC50 IRF3
Source text: (§3) STING THP1 Reporter Assay Protocol
(§4) THP1-Dual™ cells were derived from the human THP-1 monocyte cell line by stable integration of two inducible reporter constructs. To this end, THP1-Dual™ cells allow the simultaneous study of the NF-κB pathway, by monitoring the activity of SEAP, and the IRF pathway by assessing the activity of a secreted luciferase (Lucia). Both reporter proteins are readily measurable in the cell culture supernatant when using QUANTI-Blue™, a SEAP detection reagent, and QUANTI-Luc™, a luciferase detection reagent.
(§5) THP1-Dual™ cells induce the activation of NF-κB in response to STING agonists. They also trigger the IRF pathway upon stimulation with STING agonists, such as cGAMP. Here, the THP-1-Dual cells were used to assess STING binders for function on the cellular level.
(§6) Serial dilutions of compounds in DMSO were added to low volume 384 well plates at 100 nl/well using an ECHO acoustic dispenser (Labcyte, model 550) to achieve final starting concentration of 100 μM in cell suspension. THP-1 Dual™ STING reporter cells (Invivogen, Dual cells cat #THPD-nfis) were added to the plates with compounds at 15,000 cells in 10 μL per well in RPMI media (Gibco, cat #11875) containing 10% human plasma in a low volume 384-well black wall clear bottom tissue culture plate (Corning, cat #3542) for SEAP assay and low volume solid white plate (Corning, cat #3826) for luciferase assay. One column of the plate was reserved for treatment with cGAMP at 100 μM for 100% activation calculation and one column for no treatment (DMSO only) for baseline activation. Plates were then incubated in 37 OC incubator at 5% CO2 for 20 hours.
(§7) In the SEAP assay, 5 μl of 2× QuantiBlue (Invivogen, cat #Rep-qb2) is added to 384 well black plates seeded with THP1 cells and incubated at 37° C. for 2 hours. Plates were read on the Envision (Perkin Elmer) at 620 nm wavelength (OD620). In the luciferase assay, 5 μl of Quantiluc (Invivogen, Rep-qlc2) is added to white 384 well plates seeded with THP1 cells and read at 5 minutes on the Envision (Perkin Elmer) using a luminescence protocol (RLU). For both cell lines, 100% activation was determined by value (RLU) of THP-1 Dual STING cells stimulated with 100 μM cGAMP (Invivogen, cat #TLRL-NACGA23-5).

NF-κB pathway = assay: STING THP1 reporter assay, NF-κB pathway (SEAP); type: cell-based; details: THP1-Dual cells, 10% human plasma, SEAP readout, 100% = 100 μM cGAMP, read-out: THP1 Reporter Assays EC50 NFkB
Source text: as §3, §4, §5, §6, §7

NC(=O)c1cc([C@@H]2O[C@@H]3COP(=O)(S)O[C@H]4[C@@H](F)[C@H](n5cnc6c(N)ncnc65)O[C@@H]4COP(=O)(S)O[C@@H]2[C@@H]3O)[nH]n1 (single isomer, unassigned) [Example 1-3]
IC50 [1]: 50 nM | IC50 [2]: 10 nM | EC50 (IRF pathway; 20 hours): 4000 nM | EC50 (NF-κB pathway; 20 hours): 6800 nM

NC(=O)c1cc([C@@H]2O[C@@H]3COP(O)(=S)O[C@H]4[C@@H](F)[C@H](n5cnc6c(N)ncnc65)O[C@@H]4COP(O)(=S)O[C@@H]2[C@@H]3O)[nH]n1 (stereo partly shown) [Example 1-4]
IC50 [1]: 680 nM | IC50 [2]: 40 nM | EC50 (IRF pathway; Homo sapiens, THP-1, 20 h): > 100000 nM | EC50 (NF-κB pathway; Homo sapiens, THP-1, 20 h): > 100000 nM

NC(=O)c1cc([C@@H]2O[C@@H]3COP(=O)(S)O[C@H]4[C@@H](F)[C@H](n5cnc6c(N)ncnc65)O[C@@H]4COP(=O)(S)O[C@@H]2[C@@H]3O)[nH]n1 (single isomer, unassigned) [Example 1-2]
IC50 [1]: 910 nM | IC50 [2]: 30 nM | EC50 (IRF pathway; 20 hours): > 100000 nM | EC50 (NF-κB pathway; 20 hours): > 100000 nM

NC(=O)c1cc([C@@H]2O[C@@H]3COP(=O)(S)O[C@H]4[C@@H](F)[C@H](n5cnc6c(N)ncnc65)O[C@@H]4COP(=O)(S)O[C@@H]2[C@@H]3O)[nH]n1 (single isomer, unassigned) [Example 1-1]
IC50 [1]: 2400 nM | IC50 [2]: 90 nM | EC50 (IRF pathway; 20 hours): > 100000 nM | EC50 (NF-κB pathway; 20 hours): > 100000 nM
